This note sets out measurements from the Kinase Knowledgebase extract (Sharma et al. 2016).

Several values for one entry are separate records, joined by “and”; a condition that tells them apart may be missing. Equal entries are not always repeated. Bounds are passed on as bounds.

In the experiment the target is MAPK14 (human) (UniProt Q16539). The experiment in a line: Inhibition of LPS Stimulated TNF Production by U937 Cells. The following applies: for inhibition: concentration not given here.
Sequence of MAPK14 (human) (Q16539 whole entry, looked up): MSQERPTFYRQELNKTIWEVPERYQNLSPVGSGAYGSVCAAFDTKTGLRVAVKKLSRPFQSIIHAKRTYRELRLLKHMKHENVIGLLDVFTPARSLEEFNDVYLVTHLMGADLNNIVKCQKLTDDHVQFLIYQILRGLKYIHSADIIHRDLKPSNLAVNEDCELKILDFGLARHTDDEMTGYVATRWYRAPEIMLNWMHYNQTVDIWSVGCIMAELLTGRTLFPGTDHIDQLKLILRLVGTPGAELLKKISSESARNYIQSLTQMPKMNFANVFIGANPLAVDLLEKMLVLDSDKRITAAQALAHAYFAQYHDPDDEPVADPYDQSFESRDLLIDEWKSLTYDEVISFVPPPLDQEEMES

With `COc1ccc(OC)c(S(=O)(=O)N[C@H](C)c2[nH]nc(-c3ccc(F)cc3)c2-c2ccncc2)c1`, the inhibition (commonly the change of the read-out against control, counted positive when it falls) is 81%. Take `O=C(NCc1[nH]nc(-c2ccc(F)cc2)c1-c1ccncc1)c1ccccc1I`: the concentration for half-maximal inhibition (IC50) (usually the concentration needed to halve the response being measured) is 2970 nM. Regarding `C[C@@H](NC(=O)NCCc1[nH]nc(-c2ccc(F)cc2)c1-c1ccncc1)c1ccccc1`, the half-maximal inhibitory concentration (IC50) was found to be 5000 nM and the inhibition came out at 25%.

For the compound `O=C(NCc1[nH]nc(-c2ccc(F)cc2)c1-c1ccncc1)c1cc(F)c(F)cc1F`, the inhibition turned out to be 36%. For the compound `C[C@H](NS(=O)(=O)c1ccccc1S(C)(=O)=O)c1[nH]nc(-c2ccc(F)cc2)c1-c1ccncc1`, the inhibition amounted to 73%.

`OCCn1cc(-c2ccnc(F)c2)c(-c2ccc(F)cc2)n1` displayed an IC50 of 2670 nM.

In the case of `C[C@H](NS(=O)(=O)c1cc(S(=O)(=O)c2ccccc2)cs1)c1[nH]nc(-c2ccc(F)cc2)c1-c1ccncc1`, the inhibition is 90%. On to `O=C(NCc1[nH]nc(-c2ccc(F)cc2)c1-c1ccncc1)Nc1cc(Cl)cc(Cl)c1`, for which the inhibition amounted to 20%.

Regarding `Cc1cccc(C)c1NC(=O)N[C@H](C)c1[nH]nc(-c2ccc(F)cc2)c1-c1ccncc1`, the inhibition was found to be 50%. In the case of `C[C@H](NC(=O)N[C@H](C)c1[nH]nc(-c2ccc(F)cc2)c1-c1ccncc1)c1ccccc1`, the inhibition was found to be 25%. In the case of `C[C@@H](NS(=O)(=O)Cc1ccccc1)c1[nH]nc(-c2ccc(F)cc2)c1-c1ccncc1`, the IC50 is 50 nM. In turn, `C[C@@H](NC(=O)c1cc(Cl)cc(Cl)c1)c1[nH]nc(-c2ccc(F)cc2)c1-c1ccncc1` displayed an inhibition of 11%.

`C[C@@H](NC(=O)[C@H]1CCCN1)c1[nH]nc(-c2ccc(F)cc2)c1-c1ccncc1`: the inhibition is 39%. `C[C@H](NC(=O)N(C)C)c1[nH]nc(-c2ccc(F)cc2)c1-c1ccncc1` registered an inhibition of 54%. As for `NC(=O)NCc1[nH]nc(-c2ccc(F)cc2)c1-c1ccncc1`, the inhibition came out at 50%.

Compound `C[C@@H](NS(=O)(=O)C[C@]12CC[C@@H](CC1=O)C2(C)C)c1[nH]nc(-c2ccc(F)cc2)c1-c1ccncc1` returned an inhibition of 65%. In turn, `CCCNC(=O)Cn1nc(-c2ccc(F)cc2)c(-c2ccncc2)c1C` gave an inhibition of 31%. Turning to `C[C@@H](NC(=O)c1ccc(I)cc1)c1[nH]nc(-c2ccc(F)cc2)c1-c1ccncc1`, the inhibition was determined as 25%.

In turn, `c1cc(-c2c[nH]nc2-c2ccc3c(c2)OCO3)ccn1` displayed a 50% inhibitory concentration (IC50) of 417 nM. `C[C@H](NC(=O)c1c(F)cccc1C(F)(F)F)c1[nH]nc(-c2ccc(F)cc2)c1-c1ccncc1` had an inhibition of 59%. With `O=C(N[C@H](Cc1ccccc1)c1[nH]nc(-c2ccc(F)cc2)c1-c1ccncc1)C1CCCC1`, the inhibition worked out at 3%. In turn, `Cc1ccc(-c2[nH]nc(C)c2-c2ccncc2)c(C)c1` came in with a 50% inhibitory concentration (IC50) of 1050 nM.

As to `C[C@H](NS(=O)(=O)c1ccc(Cl)cc1)c1[nH]nc(-c2ccc(F)cc2)c1-c1ccncc1`, the inhibition was found to be 88%. In the case of `C[C@H](NC(=O)c1ccccc1Cl)c1[nH]nc(-c2ccc(F)cc2)c1-c1ccncc1`, the inhibition was determined as 48%. On the same count and under the same terms, the result for `Cc1ccc(C)c(S(=O)(=O)N[C@@H](C)c2[nH]nc(-c3ccc(F)cc3)c2-c2ccncc2)c1` reads 80%.

Compound `CN(C)c1ccc(CNC(=O)NCCCc2[nH]nc(-c3ccc(F)cc3)c2-c2ccncc2)cc1` registered an inhibition of 15%. On the same count and under the same terms, then `CN(C)c1cccc2c(S(=O)(=O)NCc3[nH]nc(-c4ccc(F)cc4)c3-c3ccncc3)cccc12`, with 2%. With `O=C(NCc1[nH]nc(-c2ccc(F)cc2)c1-c1ccncc1)c1ccccc1Br`, the inhibition was found to be 50%. On the same count and under the same terms, then `C[C@@H](NC(=O)c1ccccc1Cl)c1[nH]nc(-c2ccc(F)cc2)c1-c1ccncc1`, with 87%; and `C[C@@H](NC(=O)c1c(F)ccc(F)c1F)c1[nH]nc(-c2ccc(F)cc2)c1-c1ccncc1`, with 73%; and `C[C@@H](NS(=O)(=O)c1ccc(F)cc1Cl)c1[nH]nc(-c2ccc(F)cc2)c1-c1ccncc1`, with 81%. Take `CN(C)CCn1cc(-c2ccnc(CCc3ccc(F)cc3)c2)c(-c2ccc(F)cc2)n1`: the IC50 is more than 10000 nM.

Turning to `CN(C)CCNc1cc(-c2c[nH]nc2-c2ccc(F)cc2)ccn1`, the IC50 worked out at 259 nM. `CC(=O)NCCNC(=O)NCCCc1[nH]nc(-c2ccc(F)cc2)c1-c1ccncc1` showed an inhibition of 9%. The compound `CCCCCCCC(=O)NCc1[nH]nc(-c2ccc(F)cc2)c1-c1ccncc1` registered an inhibition of 4%.

In turn, `O=C(NCc1[nH]nc(-c2ccc(F)cc2)c1-c1ccncc1)c1cccnc1` yielded an inhibition of 16%.

Compound `O=C(NCc1[nH]nc(-c2ccc(F)cc2)c1-c1ccncc1)C1CC1` returned an IC50 of 3330 nM. The compound `Cc1n[nH]c(-c2ccc3c(c2)OCO3)c1-c1ccncc1` returned a concentration for half-maximal inhibition (IC50) of 1690 nM. In the case of `CCCOC(=O)N[C@@H](C)c1[nH]nc(-c2ccc(F)cc2)c1-c1ccncc1`, the inhibition turned out to be 61%.

The compound `CNC(=O)CC[C@H](NC(=O)c1ccno1)c1[nH]nc(-c2ccc(F)cc2)c1-c1ccncc1` gave an IC50 of more than 1000 nM. `CCCc1n[nH]c(-c2cccc(C)c2)c1-c1ccncc1` displayed a concentration for half-maximal inhibition (IC50) of 29 nM. Consider `C[C@@H](NS(=O)(=O)c1ccc(C#N)cc1)c1[nH]nc(-c2ccc(F)cc2)c1-c1ccncc1`, for which the inhibition was determined as 90%. `CC(C)NC(=O)NCc1[nH]nc(-c2ccc(F)cc2)c1-c1ccncc1` registered a concentration for half-maximal inhibition (IC50) of 10000 nM. In the case of `Cc1ccccc1S(=O)(=O)N[C@@H](C)c1[nH]nc(-c2ccc(F)cc2)c1-c1ccncc1`, the inhibition was 94%. With `C[C@H](NS(=O)(=O)c1cccc(C(F)(F)F)c1)c1[nH]nc(-c2ccc(F)cc2)c1-c1ccncc1`, the inhibition turned out to be 83%. On the same count and under the same terms, the result for `C[C@@H](NC(=O)c1cccc(C#N)c1)c1[nH]nc(-c2ccc(F)cc2)c1-c1ccncc1` reads 37%; that for `O=C(NCc1[nH]nc(-c2ccc(F)cc2)c1-c1ccncc1)c1cnc2ccccc2n1`, 14%.

`O=S(=O)(NCc1[nH]nc(-c2ccc(F)cc2)c1-c1ccncc1)c1c(Cl)cccc1Cl` yielded an inhibition of 43%. Consider `O=S(=O)(NCc1[nH]nc(-c2ccc(F)cc2)c1-c1ccncc1)c1cc(S(=O)(=O)c2ccccc2)cs1`, for which the inhibition is 58%.

As for `C[C@@H](NC(=O)c1ccc(C(F)(F)F)cc1)c1[nH]nc(-c2ccc(F)cc2)c1-c1ccncc1`, the inhibition was 63%.

Regarding `COc1ccc(CC(=O)N[C@@H](C)c2[nH]nc(-c3ccc(F)cc3)c2-c2ccncc2)cc1`, the inhibition turned out to be 22%.

In turn, `CSc1cccc(NC(=O)NCc2[nH]nc(-c3ccc(F)cc3)c2-c2ccncc2)c1` displayed an inhibition of 12%. On to `O=C(NCCCc1[nH]nc(-c2ccc(F)cc2)c1-c1ccncc1)NCCCn1ccnc1`, for which the half-inhibitory concentration (IC50) was more than 1000 nM.

For `COc1cc(NC(=O)NCc2[nH]nc(-c3ccc(F)cc3)c2-c2ccncc2)cc(OC)c1OC`, the inhibition came out at 29%. Take `C[C@@H](NC(=O)c1ccno1)c1[nH]nc(-c2ccc(F)cc2)c1-c1ccncc1`: the inhibition was 27%. Regarding `Fc1ccc(-c2nn(CCN3CCOCC3)cc2-c2ccnc(F)c2)cc1`, the IC50 is more than 10000 nM.

The compound `C[C@@H](NS(=O)(=O)c1ccccc1C#N)c1[nH]nc(-c2ccc(F)cc2)c1-c1ccncc1` showed an inhibition of 81%. Same read-out and setting: then `C[C@@H](NC(=O)Nc1ccc(F)cc1)c1[nH]nc(-c2ccc(F)cc2)c1-c1ccncc1`, with 35%. `O=S(=O)(c1cccc(Br)c1)N1CCC(c2[nH]nc(-c3ccc(F)cc3)c2-c2ccncc2)CC1` displayed a 50% inhibitory concentration (IC50) of more than 1000 nM. Compound `O=C(NCCc1ccccc1)NCc1[nH]nc(-c2ccc(F)cc2)c1-c1ccncc1` showed an inhibition of 9%. For the compound `CS(=O)(=O)c1ccccc1S(=O)(=O)NCc1[nH]nc(-c2ccc(F)cc2)c1-c1ccncc1`, the inhibition turned out to be 23%. `O=C(N[C@H](Cc1ccccc1)c1[nH]nc(-c2ccc(F)cc2)c1-c1ccncc1)c1cccc(Br)c1` showed a 50% inhibitory concentration (IC50) of more than 1000 nM.

Take `CCCC(CCC)C(=O)NCc1[nH]nc(-c2ccc(F)cc2)c1-c1ccncc1`: the inhibition was found to be 29%. The compound `O=S(=O)(NCc1[nH]nc(-c2ccc(F)cc2)c1-c1ccncc1)c1ccc(-c2ccon2)s1` displayed an inhibition of 89%. For the compound `Cc1noc(C)c1C(=O)NCc1[nH]nc(-c2ccc(F)cc2)c1-c1ccncc1`, the inhibition came to 28%. For the compound `OCCn1ncc(-c2ccnc(NCc3ccc(F)cc3)c2)c1-c1ccc(F)cc1`, the IC50 is 800 nM and 6020 nM. Turning to `O=S(=O)(NCCc1[nH]nc(-c2ccc(F)cc2)c1-c1ccncc1)c1cc(Cl)cc(Cl)c1O`, the inhibition worked out at 50%.

The compound `C[C@H](NC(=O)Nc1ccc(F)cc1)c1[nH]nc(-c2ccc(F)cc2)c1-c1ccncc1` came in with an inhibition of 26%. For the compound `O=C(N[C@H](Cc1ccccc1)c1[nH]nc(-c2ccc(F)cc2)c1-c1ccncc1)c1ccccn1`, the 50% inhibitory concentration (IC50) is more than 1000 nM and the inhibition is 8%. Consider `C[C@@H](NS(=O)(=O)c1ccccc1S(C)(=O)=O)c1[nH]nc(-c2ccc(F)cc2)c1-c1ccncc1`, for which the inhibition stood at 80%. In turn, `CC[C@H](C)CNc1cc(-c2c[nH]nc2-c2ccc(Cl)cc2)ccn1` registered a half-inhibitory concentration (IC50) of 33.7 nM. For the compound `Cc1n[nH]c(-c2ccc(C(F)(F)F)cc2)c1-c1ccncc1`, the half-inhibitory concentration (IC50) came to 522 nM. The compound `C[C@@H](NC(=O)c1c(F)cc(F)cc1F)c1[nH]nc(-c2ccc(F)cc2)c1-c1ccncc1` showed an inhibition of 75%. As to `CCc1ccccc1NC(=O)NCc1[nH]nc(-c2ccc(F)cc2)c1-c1ccncc1`, the inhibition is 21%.

For `C[C@H](NC(=O)c1c(F)cccc1F)c1[nH]nc(-c2ccc(F)cc2)c1-c1ccncc1`, the inhibition is 56%. Compound `O=C(NCc1[nH]nc(-c2ccc(F)cc2)c1-c1ccncc1)Nc1ccc(OC(F)(F)F)cc1` yielded an inhibition of 11%.

Regarding `O=S(=O)(NCCCc1[nH]nc(-c2ccc(F)cc2)c1-c1ccncc1)c1ccccc1Br`, the half-maximal inhibitory concentration (IC50) is 480 nM. Still for that read-out and setting: then `FC(F)(F)c1cccc(-c2n[nH]cc2-c2ccncc2)c1`, with 87 nM. Consider `C[C@@H](NS(=O)(=O)c1cccc2ccccc12)c1[nH]nc(-c2ccc(F)cc2)c1-c1ccncc1`, for which the inhibition stood at 58%. For `Cc1c(C)c(S(=O)(=O)NCc2[nH]nc(-c3ccc(F)cc3)c2-c2ccncc2)c(C)c2c1OC(C)(C)CC2`, the inhibition was 11%.

Consider `CCOC(=O)C(CC(C)C)NC(=O)NCc1[nH]nc(-c2ccc(F)cc2)c1-c1ccncc1` (centres undefined), for which the inhibition was found to be 9%. Turning to `CC(C)NC(=O)N[C@@H](C)c1[nH]nc(-c2ccc(F)cc2)c1-c1ccncc1`, the inhibition was determined as 47%.
